Measured values published in paper PMC10779433, “Bidirectional Allosteric Coupling between PIP2 Binding and the Pore of the Oncochannel TRPV6” (International Journal of Molecular Sciences, 2024).
Residues, ends and D or L forms follow the SMILES beside them. *: point of attachment. Palmitoyl = CCCCCCCCCCCCCCCC(=O)*

Legend:
TRPV6 D580K = assay: NFAT screen, TRPV6 D580K; type: cell-based, human; conditions: HEK293 cells; 5 μM cis-22a, 2 h, vs DMSO
Protocol: (§1) N-terminally TagRFP-labeled human TRPV6 (725 aa) was kindly provided by R. Bhardwaj and M. Hediger (University of Bern, Bern, Switzerland). This variant is translated from the first ATG codon and thus deviates from the non-ATG-initiated protein which is expressed in vivo (accession number NM_018646.6) by lacking 40 amino acids of the very N-terminus. For N-terminal labeling with EYFP, TRPV6 was cloned into pEYFP-C1 (Clontech) via EcoRI and SacII restriction sites. […]
(§2) After incubation, cover slips were carefully rinsed with phenol red-free DMEM supplemented with the compound and dosage corresponding to the previous incubation, which was then also present during imaging. […] Subcellular NFAT localization of TRPV6 expressing cells was again monitored on an Axiovert 135 inverted microscope (Zeiss, Oberkochen, Germany), as described in more detail before. […] Images were analyzed using Matlab2018a, differentiating between three cell populations based on the ratio of CFP emission intensity originating from the nucleus and the cytosol, similar to Schober et al. (2019).

TRPV6 D580A = assay: NFAT screen, TRPV6 D580A; type: cell-based, human; conditions: HEK293 cells; 5 μM cis-22a, 2 h, vs DMSO
Protocol: as §1, §2

TRPV6 G488R = assay: NFAT screen, TRPV6 G488R; type: cell-based, human; conditions: HEK293 cells; 5 μM cis-22a, 2 h, vs DMSO
Protocol: as §1, §2

TRPV6 R589A = assay: NFAT screen, TRPV6 R589A; type: cell-based, human; conditions: HEK293 cells; 5 μM cis-22a, 2 h; same for solvent control
Protocol: as §1, §2

TRPV6 R470A = assay: NFAT screen, TRPV6 R470A; type: cell-based, human; conditions: HEK293 cells; 5 μM cis-22a, 2 h, vs DMSO
Protocol: as §1, §2

TRPV6 W583A = assay: NFAT screen, TRPV6 W583A; type: cell-based, human; conditions: HEK293 cells; 5 μM cis-22a, 2 h, vs DMSO; analysable cells hardly present
Protocol: as §1, §2

TRPV6 H582A = assay: NFAT screen, TRPV6 H582A; type: cell-based, human; conditions: HEK293 cells; 5 μM cis-22a, 2 h, vs DMSO; analysable cells hardly present
Protocol: as §1, §2

TRPV6 I575A [1] = tested on: TRPV6 I575A; design: method as in PMID 33246965; conditions: HEK293 cells; 0.1 μM and 10 μM cis-22a; Figure 5B; ref [47]; cited from earlier work
TRPV6 W583F = assay: Whole-cell patch clamp, TRPV6 W583F; type: cell-based, human; conditions: HEK293 cells, 10 μM pal-PIP2 peptide, Figure 5C
From the text: (§3) N-terminally TagRFP-labeled human TRPV6 (725 aa) was kindly provided by R. Bhardwaj and M. Hediger (University of Bern, Bern, Switzerland). This variant is translated from the first ATG codon and thus deviates from the non-ATG-initiated protein which is expressed in vivo (accession number NM_018646.6) by lacking 40 amino acids of the very N-terminus. For N-terminal labeling with EYFP, TRPV6 was cloned into pEYFP-C1 (Clontech) via EcoRI and SacII restriction sites. Mutations (F468A, R470A, F472A, K484A/Q, G488R, R492A/Q, I575A, G579A, D580A/K, H582A, W583A/F, H587A, R589A, W593A, R632A/Q, R470A, W583F) were introduced using the QuickChange XL site-directed mutagenesis kit (Stratagene, San Diego, CA, USA) and Pfu DNA Polymerase (Promega, Madison, WI, USA). pTagRFP-hTRPV6 I575A was kindly provided by the lab of M. Hediger (University of Bern, Bern, Switzerland). Forward and reverse primers for site-directed mutagenesis were synthesized by Eurofins genomics GmbH (Wien, Vienna, Austria). Intactness of the constructs in terms of sequence was confirmed by sequencing (Microsynth Austria GmbH, Wien, Vienna, Austria; Eurofins genomics GmbH, Wien, Vienna, Austria). […]
(§4) Electrophysiological experiments were performed at 20 °C to 24 °C in whole-cell recording configurations of the patch clamp technique. […] The liquid junction potential was determined as 12 mV; the voltages were not adjusted. […]

TRPV6 K484A = assay: Whole-cell patch clamp, TRPV6 K484A; type: cell-based, human; conditions: HEK293 cells; 10 μM pal-PIP2 peptide; p < 0.05; Figure 4D
From the text: as §3, §4

TRPV6 I575A [2] = assay: Whole-cell patch clamp, TRPV6 I575A; type: cell-based, human; conditions: HEK293 cells, 10 μM pal-PIP2 peptide, Figure 5C (substitution reduces the inhibition)
From the text: as §3, §4

Row | Compound | change of nuclear NFAT localization (TRPV6 D580K) | change of nuclear NFAT localization (TRPV6 D580A) | reduction of nuclear NFAT localization (TRPV6 G488R) | nuclear targeting of NFAT (TRPV6 R589A) | reduction of nuclear NFAT localization (TRPV6 R470A) | change of nuclear NFAT localization (TRPV6 W583A) | change of nuclear NFAT localization (TRPV6 H582A) | response to cis-22a vs TRPV6 WT (TRPV6 I575A [1]) | sensitivity to peptide-based PIP2 sequestration vs WT (TRPV6 W583F) | sensitivity to peptide-based PIP2 sequestration vs WT (TRPV6 K484A) | inhibitory effect of pal-PIP2 peptide vs WT (TRPV6 I575A [2])
1 | Cc1cccc(C2CCC(N3CCN(c4cccnc4)CC3)CC2)c1.O=C(O)C(F)(F)F (stereo not drawn) [cis-22a] | not significantly changed | not significantly changed | impeded cis-22a-based reductions in nuclear NFAT localization | almost absent | failed to significantly reduce NFAT nuclear localization | nuclear NFAT localization was higher for cis-22a-treated cells compared to the DMSO control | nuclear NFAT localization was higher for cis-22a-treated cells compared to the DMSO control | significantly reduced response |  |  | 
2 | CCCCCCCCCCCCCCCC(=O)N[C@@H](Cc1c[nH]cn1)C(=O)N[C@@H](CCCNC(=N)N)C(=O)N[C@@H](CCC(N)=O)C(=O)N[C@@H](CCCCN)C(=O)N[C@@H](Cc1c[nH]cn1)C(=O)N[C@@H](Cc1ccccc1)C(=O)N[C@@H](CCC(=O)O)C(=O)N[C@@H](CCCCN)C(=O)N[C@@H](CCCNC(=N)N)C(=O)N[C@@H](CCCNC(=N)N)C(N)=O [pal-PIP2 peptide] (Palmitoyl-HRQKHFEKRR-NH2) |  |  |  |  |  |  |  |  | not changed compared to the wildtype control | significantly reduced sensitivity | interfered with the inhibitory effect of the pal-PIP2 peptide
